For assay [1], the target named is Mitogen-activated protein kinase 8 (Homo sapiens) (UniProt P45983). The assay can be described thus: Inhibition of JNK1 (unknown origin) at 10 uM.
The target of assay [2] is Serine/threonine-protein kinase pim-1 (Homo sapiens) (UniProt P11309). Kind of assay: Inhibition of PIM1 (unknown origin) at 10 uM.
The target of assay [3] is Mitogen-activated protein kinase 3 (Homo sapiens) (UniProt P27361). The assay can be described thus: Inhibition of ERK1 (unknown origin) at 10 uM.
The subject of assay [4] is HCT-15. Kind of assay: Cytotoxicity against human HCT15 cells assessed as reduction in cell viability after 48 hrs by MTT assay. Format: functional, cell-based. Conditions: HCT-15, 48 h.
For assay [5], the system named is HCT-116. The assay can be described thus: Synergistic cytotoxicity against human HCT116 cells assessed as reduction in cell viability by measuring combination index at 1:1 compound to erlotinib ratio after 48 hrs by MTT assay. The assay is classed as functional. (In general: Tetrazolium assays rely on reduction of a dye to a coloured formazan, in cell work by metabolically active cells.)

The test system of assay [6] is HT-29. The assay can be described thus: Synergistic cytotoxicity against human HT-29 cells assessed as reduction in cell viability by measuring combination index at 1:1 compound to dasatinib ratio after 48 hrs by MTT assay. Format: functional.
For assay [7], the target named is Inhibitor of nuclear factor kappa-B kinase subunit beta (Homo sapiens) (UniProt O14920). The assay can be described thus: Inhibition of IKKbeta (unknown origin) at 10 uM.
Chain of Inhibitor of nuclear factor kappa-B kinase subunit beta (Homo sapiens) (O14920 whole entry): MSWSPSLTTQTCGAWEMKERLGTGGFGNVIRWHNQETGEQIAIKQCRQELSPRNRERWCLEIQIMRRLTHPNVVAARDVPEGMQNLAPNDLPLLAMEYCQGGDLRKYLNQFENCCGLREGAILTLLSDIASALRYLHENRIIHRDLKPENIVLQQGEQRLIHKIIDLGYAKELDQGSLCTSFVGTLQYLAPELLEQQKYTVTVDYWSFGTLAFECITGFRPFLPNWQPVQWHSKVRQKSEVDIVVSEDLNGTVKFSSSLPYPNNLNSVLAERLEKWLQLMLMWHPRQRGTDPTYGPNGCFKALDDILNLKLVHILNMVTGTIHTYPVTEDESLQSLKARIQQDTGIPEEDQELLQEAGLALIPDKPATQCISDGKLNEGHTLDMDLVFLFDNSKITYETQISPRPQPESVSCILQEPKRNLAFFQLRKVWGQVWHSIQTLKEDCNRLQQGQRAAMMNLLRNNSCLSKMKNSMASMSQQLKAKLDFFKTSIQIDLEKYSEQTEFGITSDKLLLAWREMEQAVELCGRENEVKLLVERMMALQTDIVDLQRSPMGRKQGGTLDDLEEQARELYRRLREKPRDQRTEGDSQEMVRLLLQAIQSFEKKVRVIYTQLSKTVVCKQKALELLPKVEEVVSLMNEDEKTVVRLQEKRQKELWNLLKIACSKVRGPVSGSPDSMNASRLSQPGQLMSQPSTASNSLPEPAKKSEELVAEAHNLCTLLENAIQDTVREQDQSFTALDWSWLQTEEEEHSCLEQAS
For assay [8], the target named is Tyrosine-protein kinase receptor UFO (Homo sapiens) (UniProt P30530). Kind of assay: Inhibition of AXL (unknown origin) at 10 uM.
Assay [9] relates to HCT-116. Kind of assay: Inhibition of cytokinesis in human HCT116 cells at 1 uM after 24 hrs by propidium iodide/RNase staining-based flow cytometric analysis. The assay is classed as functional, cell-based. On the technique in general: A flow cytometer gives signals particle by particle.
Assay [10] addresses Protein kinase C alpha type (Homo sapiens) (UniProt P17252). Kind of assay: Inhibition of PKCalpha (unknown origin) at 10 uM.
For assay [11], the target named is Fibroblast growth factor receptor 3 (Homo sapiens) (UniProt P22607). The assay can be described thus: Inhibition of FGFR3 (unknown origin) at 10 uM.
Chain of Fibroblast growth factor receptor 3 (Homo sapiens) (P22607 23-806 limits assumed): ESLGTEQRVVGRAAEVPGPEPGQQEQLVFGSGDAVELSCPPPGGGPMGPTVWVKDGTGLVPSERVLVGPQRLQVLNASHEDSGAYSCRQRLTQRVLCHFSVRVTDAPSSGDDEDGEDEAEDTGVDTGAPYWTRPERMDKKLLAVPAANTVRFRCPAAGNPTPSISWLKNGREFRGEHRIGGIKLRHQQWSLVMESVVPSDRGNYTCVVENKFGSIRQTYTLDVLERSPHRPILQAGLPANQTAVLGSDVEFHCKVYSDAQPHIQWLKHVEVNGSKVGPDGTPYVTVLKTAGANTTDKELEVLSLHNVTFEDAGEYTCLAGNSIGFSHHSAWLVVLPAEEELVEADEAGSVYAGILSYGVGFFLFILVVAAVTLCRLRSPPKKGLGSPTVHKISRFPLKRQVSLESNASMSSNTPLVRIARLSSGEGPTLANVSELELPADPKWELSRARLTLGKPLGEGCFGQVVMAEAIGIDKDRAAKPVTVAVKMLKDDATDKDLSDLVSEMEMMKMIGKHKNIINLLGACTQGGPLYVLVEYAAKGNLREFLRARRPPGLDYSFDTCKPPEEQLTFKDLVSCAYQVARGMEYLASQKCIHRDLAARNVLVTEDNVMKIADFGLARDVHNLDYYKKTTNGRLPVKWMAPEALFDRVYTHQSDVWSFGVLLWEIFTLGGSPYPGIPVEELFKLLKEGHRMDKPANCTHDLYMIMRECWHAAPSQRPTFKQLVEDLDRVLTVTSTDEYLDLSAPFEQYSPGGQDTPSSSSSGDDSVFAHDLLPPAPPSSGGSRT
Assay [12] deals with Serine/threonine-protein kinase B-raf (Homo sapiens) (UniProt P15056). The assay can be described thus: Inhibition of BRAF (unknown origin) at 10 uM.
The target of assay [13] is Receptor tyrosine-protein kinase erbB-2 (Homo sapiens) (UniProt P04626). Kind of assay: Inhibition of ErbB2 (unknown origin) at 10 uM.
The target in assay [14] is Serine/threonine-protein kinase PAK 1 (Homo sapiens) (UniProt Q13153). The assay can be described thus: Inhibition of PAK1 (unknown origin) at 10 uM.
Chain of Serine/threonine-protein kinase PAK 1 (Homo sapiens) (Q13153 whole entry): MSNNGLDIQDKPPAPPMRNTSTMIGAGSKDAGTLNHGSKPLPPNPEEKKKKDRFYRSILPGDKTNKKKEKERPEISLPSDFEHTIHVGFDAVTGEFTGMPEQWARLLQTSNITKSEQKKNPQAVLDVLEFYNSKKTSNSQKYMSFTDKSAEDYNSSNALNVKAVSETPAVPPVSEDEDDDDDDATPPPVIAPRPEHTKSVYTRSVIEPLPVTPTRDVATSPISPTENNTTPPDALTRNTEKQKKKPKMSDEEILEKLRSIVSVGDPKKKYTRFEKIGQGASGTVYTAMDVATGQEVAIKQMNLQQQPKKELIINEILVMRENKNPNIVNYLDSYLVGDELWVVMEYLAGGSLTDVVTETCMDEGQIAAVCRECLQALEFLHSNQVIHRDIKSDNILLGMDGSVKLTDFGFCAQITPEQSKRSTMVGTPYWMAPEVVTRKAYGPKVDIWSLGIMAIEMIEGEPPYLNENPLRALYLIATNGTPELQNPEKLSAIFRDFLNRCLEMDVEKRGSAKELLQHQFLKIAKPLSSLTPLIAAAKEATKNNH
Assay [15] has as its target High affinity nerve growth factor receptor (Homo sapiens) (UniProt P04629). Kind of assay: Inhibition of TrkA (unknown origin) at 10 uM.
Assay [16] addresses Serine/threonine-protein kinase PLK3 (Homo sapiens) (UniProt Q9H4B4). The assay can be described thus: Inhibition of PLK3 (unknown origin) at 10 uM.
The target in assay [17] is Hepatocyte growth factor receptor (Homo sapiens) (UniProt P08581). Kind of assay: Inhibition of c-MET (unknown origin) at 10 uM.
For assay [18], the target named is CDK2/Cyclin A2 (Homo sapiens) (UniProt P24941+P20248). Kind of assay: Inhibition of CDK2/cyclin A (unknown origin) at 10 uM. Format: protein-complex assay.
The target in assay [19] is Serine/threonine-protein kinase PAK 4 (Homo sapiens) (UniProt O96013). The assay can be described thus: Inhibition of PAK4 (unknown origin) at 10 uM.
Chain of Serine/threonine-protein kinase PAK 4 (Homo sapiens) (O96013 whole entry, looked up): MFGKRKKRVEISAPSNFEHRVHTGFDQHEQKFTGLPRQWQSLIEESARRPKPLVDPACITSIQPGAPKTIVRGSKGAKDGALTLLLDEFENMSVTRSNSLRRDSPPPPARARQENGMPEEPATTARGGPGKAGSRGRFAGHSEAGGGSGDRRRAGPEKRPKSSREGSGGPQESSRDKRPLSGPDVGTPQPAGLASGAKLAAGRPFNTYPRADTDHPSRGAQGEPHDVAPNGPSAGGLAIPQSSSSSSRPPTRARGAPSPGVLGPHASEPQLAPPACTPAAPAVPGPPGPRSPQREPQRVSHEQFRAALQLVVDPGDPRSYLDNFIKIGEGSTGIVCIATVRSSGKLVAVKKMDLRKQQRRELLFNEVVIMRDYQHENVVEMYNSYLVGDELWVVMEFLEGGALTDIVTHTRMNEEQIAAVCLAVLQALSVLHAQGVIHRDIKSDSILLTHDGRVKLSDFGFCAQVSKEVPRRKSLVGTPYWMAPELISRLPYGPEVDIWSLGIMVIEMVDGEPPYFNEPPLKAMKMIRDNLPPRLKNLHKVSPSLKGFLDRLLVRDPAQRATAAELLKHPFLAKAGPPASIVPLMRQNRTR
For assay [20], the target named is Serine/threonine-protein kinase mTOR (Homo sapiens) (UniProt P42345). The assay can be described thus: Inhibition of mTOR (unknown origin) at 10 uM.
Assay [21] concerns the target Angiopoietin-1 receptor (Homo sapiens) (UniProt Q02763). The assay can be described thus: Inhibition of TIE2 (unknown origin) at 10 uM.

Calls of active or inactive are those of the source. The calls are words filed in the database; no cut-off is given here.

We go through 1 compound from ChEMBL document CHEMBL4265887 (Bioorg Med Chem Lett, 2018).

Broadly, the inhibition is the relative decrease from the control value, in per cent. The term IC50 denotes the concentration needed to halve the response being measured.

Chain of Mitogen-activated protein kinase 8 (Homo sapiens) (P45983 whole entry): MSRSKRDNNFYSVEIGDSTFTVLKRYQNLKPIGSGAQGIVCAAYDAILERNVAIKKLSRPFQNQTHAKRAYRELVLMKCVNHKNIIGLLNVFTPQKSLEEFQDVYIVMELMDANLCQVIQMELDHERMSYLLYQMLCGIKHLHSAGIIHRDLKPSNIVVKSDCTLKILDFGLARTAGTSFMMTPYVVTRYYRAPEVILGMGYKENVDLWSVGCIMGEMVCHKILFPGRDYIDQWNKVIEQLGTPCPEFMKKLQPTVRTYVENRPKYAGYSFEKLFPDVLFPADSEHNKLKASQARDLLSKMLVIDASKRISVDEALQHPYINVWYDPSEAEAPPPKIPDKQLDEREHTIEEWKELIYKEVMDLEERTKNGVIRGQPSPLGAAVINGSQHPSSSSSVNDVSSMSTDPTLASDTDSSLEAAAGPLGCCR
Chain of High affinity nerve growth factor receptor (Homo sapiens) (P04629 33-796 limits assumed): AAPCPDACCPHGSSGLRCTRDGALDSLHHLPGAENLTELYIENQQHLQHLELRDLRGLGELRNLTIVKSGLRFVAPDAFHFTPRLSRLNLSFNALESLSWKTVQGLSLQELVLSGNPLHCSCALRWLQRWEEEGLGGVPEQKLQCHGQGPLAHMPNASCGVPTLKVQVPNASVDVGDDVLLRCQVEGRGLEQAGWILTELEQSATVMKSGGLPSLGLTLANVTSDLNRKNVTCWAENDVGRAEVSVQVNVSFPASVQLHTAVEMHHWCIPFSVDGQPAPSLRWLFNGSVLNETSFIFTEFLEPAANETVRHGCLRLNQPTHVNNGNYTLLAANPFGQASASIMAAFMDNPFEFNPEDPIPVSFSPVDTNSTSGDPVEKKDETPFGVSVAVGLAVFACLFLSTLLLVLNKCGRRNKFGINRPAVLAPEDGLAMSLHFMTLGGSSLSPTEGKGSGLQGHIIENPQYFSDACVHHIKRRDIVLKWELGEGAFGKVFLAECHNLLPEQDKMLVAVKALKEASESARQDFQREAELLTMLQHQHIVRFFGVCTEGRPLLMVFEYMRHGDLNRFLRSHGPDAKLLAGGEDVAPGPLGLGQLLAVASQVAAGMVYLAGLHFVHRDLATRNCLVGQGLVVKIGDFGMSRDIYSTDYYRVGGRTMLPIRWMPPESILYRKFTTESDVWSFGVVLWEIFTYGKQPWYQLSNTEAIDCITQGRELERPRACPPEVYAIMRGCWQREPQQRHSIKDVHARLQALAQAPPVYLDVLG
Chain of Angiopoietin-1 receptor (Homo sapiens) (Q02763 whole entry): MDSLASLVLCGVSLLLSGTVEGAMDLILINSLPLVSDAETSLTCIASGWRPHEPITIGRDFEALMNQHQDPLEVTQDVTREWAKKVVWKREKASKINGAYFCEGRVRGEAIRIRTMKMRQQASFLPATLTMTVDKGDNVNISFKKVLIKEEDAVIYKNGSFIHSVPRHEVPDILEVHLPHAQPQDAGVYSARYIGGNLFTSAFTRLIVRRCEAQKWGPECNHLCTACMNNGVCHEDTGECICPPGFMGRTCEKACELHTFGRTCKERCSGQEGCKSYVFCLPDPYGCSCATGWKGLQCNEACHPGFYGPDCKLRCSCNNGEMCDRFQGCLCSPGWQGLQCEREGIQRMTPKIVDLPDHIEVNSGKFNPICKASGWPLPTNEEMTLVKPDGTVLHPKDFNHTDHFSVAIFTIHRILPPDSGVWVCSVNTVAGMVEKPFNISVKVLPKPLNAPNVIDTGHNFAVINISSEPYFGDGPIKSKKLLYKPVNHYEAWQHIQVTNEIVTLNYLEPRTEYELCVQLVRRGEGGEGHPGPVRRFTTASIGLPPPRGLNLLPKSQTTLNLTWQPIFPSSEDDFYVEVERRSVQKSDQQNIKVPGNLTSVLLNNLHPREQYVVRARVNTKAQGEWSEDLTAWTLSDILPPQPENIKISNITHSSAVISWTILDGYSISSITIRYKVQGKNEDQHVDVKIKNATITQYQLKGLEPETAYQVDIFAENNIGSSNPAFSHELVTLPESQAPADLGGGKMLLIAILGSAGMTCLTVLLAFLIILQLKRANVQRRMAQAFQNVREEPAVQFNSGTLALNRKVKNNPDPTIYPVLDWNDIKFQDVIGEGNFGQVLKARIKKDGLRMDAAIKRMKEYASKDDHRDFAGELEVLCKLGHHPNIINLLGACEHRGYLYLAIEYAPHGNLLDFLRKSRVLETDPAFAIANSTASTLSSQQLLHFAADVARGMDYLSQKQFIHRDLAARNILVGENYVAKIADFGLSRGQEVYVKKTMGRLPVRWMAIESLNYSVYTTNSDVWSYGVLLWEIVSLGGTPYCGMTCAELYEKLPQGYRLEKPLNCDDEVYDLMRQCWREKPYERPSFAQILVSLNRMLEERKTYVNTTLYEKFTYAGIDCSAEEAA

With `CNC(=O)Nc1sc2c(C(C)C)cc(NS(=O)(=O)c3cccs3)cc2c1C(N)=O`, the inhibition in assay [1] was 12.2%; in [2] it was 35.7%; in [3], 12.4%; in assay [7], 16.2%; in [8] it was 112%; in assay [10], 21.4%. For the same compound, the inhibition stood at 81.6% in assay [11]; 53.5% in assay [12]; 35.9% in [13]; 26.7% in assay [14]; 95.3% in [15]; 78.7% in assay [16]. For the same compound, the inhibition in assay [17] is 47.4%; in assay [18], 33.9%; in assay [19], 95.7%; in assay [20] it was 8.62%; in [21], 35.7%. Further, the IC50 in assay [4] amounted to 620 nM. The CI worked out at 0.25 in assay [5] and 0.073 in [6]. The “Cytokinesis inhibition (active/inactive call)” value in [9] was “Active”.
